According to the CheMixHub viscosity set:

Test: xn = mol fraction of the nth substance listed

CCCCCCO + CN1CCCC1=O
viscosity [mPa·s], 100 kPa
Details	x1 = 0.1042	x1 = 0.2	x1 = 0.302	x1 = 0.3995	x1 = 0.4998	x1 = 0.5996	x1 = 0.6992	x1 = 0.7985	x1 = 0.8981	x1 = 0.9469
293.15 K	1.95	2.073	2.222	2.385	2.581	2.824	3.148	3.595	4.278	4.729
298.15 K	1.786	1.894	2.02	2.157	2.321	2.521	2.791	3.158	3.711	4.048
303.15 K	1.645	1.739	1.845	1.961	2.099	2.266	2.49	2.791	3.24	3.53
308.15 K	1.522	1.603	1.693	1.791	1.907	2.046	2.233	2.481	2.844	3.083
313.15 K	1.412	1.483	1.56	1.643	1.741	1.857	2.012	2.217	2.51	2.708
318.15 K	1.315	1.377	1.442	1.513	1.595	1.692	1.822	1.991	2.226	2.387

CCCCCCO + CO
298.15 K, 101.33 kPa
Details	viscosity [mPa·s]
x2 = 0.1054	3.881
x2 = 0.2016	3.351
x2 = 0.3144	2.778
x2 = 0.4093	2.348
x2 = 0.5053	1.968
x2 = 0.6027	1.615
x2 = 0.7094	1.278
x2 = 0.8038	1.001
x2 = 0.9022	0.7601

CCOCC + CO
101 kPa
Details	viscosity [mPa·s]
298.15 K, x1 = 0.115	0.4734
298.15 K, x1 = 0.1893	0.4296
298.15 K, x1 = 0.2803	0.3846
298.15 K, x1 = 0.3957	0.3378
298.15 K, x1 = 0.5399	0.2953
298.15 K, x1 = 0.7319	0.2553
303.16 K, x1 = 0.04	0.4893
303.16 K, x1 = 0.09	0.4472
303.16 K, x1 = 0.13	0.4312
303.16 K, x1 = 0.2	0.3881
303.16 K, x1 = 0.27	0.3392
303.16 K, x1 = 0.37	0.2921
303.16 K, x1 = 0.51	0.2772
303.16 K, x1 = 0.67	0.2511
303.16 K, x1 = 0.85	0.2328

CC(C)CC(C)(C)C + COC(=O)OC
viscosity [mPa·s], 101 kPa
Details	x2 = 0.1235	x2 = 0.2408	x2 = 0.3521	x2 = 0.4583	x2 = 0.5592	x2 = 0.6554	x2 = 0.7475	x2 = 0.8352	x2 = 0.9193
293.15 K	0.4747	0.4613	0.4659	0.4672	0.4798	0.4974	0.5114	0.5331	0.5636
298.15 K	0.4464	0.4356	0.44	0.4397	0.4483	0.4637	0.4815	0.5015	0.5303
303.15 K	0.4224	0.4116	0.4159	0.4143	0.4231	0.4353	0.4517	0.4719	0.5004
313.15 K	0.3788	0.3706	0.373	0.3699	0.3779	0.3929	0.4049	0.4201	0.4475
323.15 K	0.3424	0.3338	0.3339	0.3344	0.3399	0.3487	0.3616	0.376	0.3958

C=C(C)[C@@H]1CC=C(C)CC1 + COC(C)(C)C
298.15 K, 101.33 kPa
Details	viscosity [mPa·s]
x2 = 0.0694	0.807
x2 = 0.1591	0.755
x2 = 0.257	0.7
x2 = 0.3599	0.641
x2 = 0.491	0.572
x2 = 0.6599	0.486
x2 = 0.7344	0.449
x2 = 0.8017	0.418
x2 = 0.8714	0.386
x2 = 0.9373	0.356
x2 = 0.9672	0.344

CCC(C)N (configuration not stated) + COCCO
308.15 K, 101 kPa
Details	viscosity [mPa·s]
x2 = 0.1256	0.5105
x2 = 0.2443	0.6223
x2 = 0.3566	0.7355
x2 = 0.463	0.8498
x2 = 0.564	0.9507
x2 = 0.6599	1.015
x2 = 0.7511	1.066
x2 = 0.838	1.121
x2 = 0.9209	1.175

CCOCC + COCCO
298.15 K, 101 kPa
Details	viscosity [mPa·s]
x2 = 0.0976	0.2661
x2 = 0.1958	0.307
x2 = 0.2944	0.363
x2 = 0.3936	0.4399
x2 = 0.4933	0.5713
x2 = 0.5936	0.6782
x2 = 0.6944	0.8546
x2 = 0.7957	1.065
x2 = 0.8976	1.33

O=C1CCCCC1 + COCCO
298.15 K, 101 kPa
Details	viscosity [mPa·s]
x1 = 0.0793	1.432
x1 = 0.1624	1.369
x1 = 0.2494	1.33
x1 = 0.3408	1.325
x1 = 0.4367	1.33
x1 = 0.5377	1.354
x1 = 0.644	1.402
x1 = 0.7562	1.504
x1 = 0.8746	1.665
